In data set [1] the test system is rats with dry eye syndrome (extraorbital lacrimal gland excision, ELGE). The data set is described as follows: Amount of tear secretion (Schirmer test, cobalt chloride paper) in rats with ELGE-induced dry eye syndrome. The format is in vivo, rat. The settings on record: for Amount of tear secretion as compared with the ELGE control group: 0.3% solution (DS 3%), administration for 14 days, study of YDE-001 to YDE-028.
Description: In order to evaluate the eye protection effect on dry eye syndrome by YDE-001 to YDE-028 prepared in Working Example 1, a total of 320 Sprague-Dawley-type male rats (OrientBio, Seungnam, Korea) were adapted for 7 days. Thereafter, dry eye syndrome was induced in 264 test rats through extraorbital lacrimal gland excision (hereinafter, ELGE). 8 test rats without the eye abnormality were subjected to a sham operation as a control group.
The rats were systemically anesthetized by inhaling a mixed gas of 2% to 3% of isoflurane (Hana Pharm. Co., Hwasung, Korea), 70% of N2O, and 28.6% of O2 using a rodent anesthesia machine (Surgivet, Waukesha, Wis., USA) and a ventilator (Model 687, Harvard Apparatus, Cambridge, UK). Thereafter, the extraorbital lacrimal gland located in the subdermal area above the masseter muscle and under the optic nerve was excised through a transverse incision in a size of 10 mm on the anterior part of the left ear tragus. The skin was sutured by a general method. […] After 6 days following the ELGE operation, confirmation was performed through the Schirmer test by measuring the amount of tear secretion whether dry eye syndrome had been induced. Meanwhile, each rat of the control group with the sham operation was checked for the presence and location of the extraorbital lacrimal gland through a skin incision, and the skin was then sutured without the excision thereof (FIG. 134).
In addition, in order to evaluate the eye protection effect on dry eye syndrome by YDE-029 to YDE-043 prepared in Working Example 1, a total of 200 Sprague-Dawley-type male rats (OrientBio, Seungnam, Korea) were adapted for 7 days. Dry eye syndrome was induced in 165 test rats through the ELGE. 8 test rats without the eye abnormality were subjected to the sham operation as a control group. The ELGE was carried out as described above.
(§1) For YDE-001 to YDE-028, YY-102 and the 28 YDE-series were each dissolved in physiological saline at a concentration of 3 mg/ml and administered at a dose of 5 μl/eye at 9:30 am and 3:30 pm daily for 14 days after 7 days from the ELGE operation for a total of 28 times. The DS solution was dissolved in physiological saline at a concentration of 30 mg/ml and administered at a dose of 5 μl/eye twice a day for 14 days after 7 days from the ELGE operation for a total of 28 times. For the sham control and the ELGE control groups, the same stimulation as the administration was applied. In order to prevent excessive eye dryness, the same volume of physiological saline was applied in the same manner in place of the test substances.
as §1, with “Further, For YDE-029” for “For YDE-001”, “Further, For YDE-029 to YDE-043,” for “For YDE-001 to YDE-028,”, “YDE-029 to YDE-043, YY-102 and” for “YDE-001 to YDE-028, YY-102 and”, “and the 15 YDE-series were” for “and the 28 YDE-series were”, “the test substances (FIG. 137).” for “the test substances.”
After 6 days from the ELGE surgery, the changes in the amount of tear secretion were measured at day 7 and day 14 after the administration of YDE-001 to YDE-043. The amount of tear secretion was measured by the […] travel distance of tears absorbed by cobalt chloride paper in a size of 1×15 mm (Toyo Roshi Kaisha, Japan).
The cobalt chloride paper was placed in the lateral canthus of a rat for 60 seconds to absorb tears (FIG. 139). The length of the area absorbed from the corner of the cobalt chloride paper was measured with an electronic digital caliper (Mytutoyo, Tokyo, Japan) (FIG. 138).

Data set [2] has as its system cornea of rats with dry eye syndrome (ELGE). The data set can be described thus: Corneal permeability of fluorescent dye (corneal damage) in rats with ELGE-induced dry eye syndrome. Type of data set: in vivo, rat. The settings on record: 0.3% solution, day 14 after the administration, study of YDE-001 to YDE-028 (Table 16). Summed up: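 Dry eye induced in male Sprague-Dawley rats by extraorbital lacrimal gland excision, confirmed by Schirmer test. From day 7 post-surgery, compounds at 3 mg/ml in saline given topically 5 μl/eye twice daily. After 14 doses, 1% fluorescein applied for 1 h under anesthesia, with corneal permeability scored by slit-lamp 12–24 h later.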

The nature of data set [3]: Stability in aqueous solution, amount of related substances under long-term storage conditions. Type of data set: physicochemical. The settings on record: glass vial, 25° C., 75% RH. Put shortly:
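Test substances dissolved in water at 1 mg/ml, sealed in glass vials and held at 25° C./75% RH. Related substances measured at 1, 2, 4, 8 and 12 weeks.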

Non-standard residues stand in square brackets, D forms with d. Residues, ends and D or L forms follow the SMILES beside them. No end group written: not given here. Hyp = O=C(O)[C@@H]1C[C@@H](O)CN1; Sar = CNCC(=O)O

For the compound `CNC(=O)C[C@H](NC(=O)[C@H](CCC(N)=O)NC(=O)CNC(=O)[C@@H]1C[C@@H](O)CN1)C(=O)NCC(=O)N[C@@H](CC(C)C)C(=O)N[C@@H](C)C(=O)NCC(=O)N1CCC[C@H]1C(=O)N[C@@H](CCCCN)C(=O)O` [YDE-028, HyP-Gly-Gln-Asn(Me)-Gly-Leu-Ala-Gly-Pro-Lys] (H-[Hyp]GQD(NHMe)GLAGPK-OH), the “Amount of tear secretion as compared with the ELGE control group” value in data set [1] is listed as “did not show any significant changes”. Moreover, the “Permeability of fluorescent dye (%)” value in data set [2] is recorded as 41.17 ± 10.25%. Also, the “Amount of related substances (%; after 12 weeks)” value in data set [3] is 1.15%.

On to “YDE-025: peptide of SEQ ID NO: 31, the compound represented by Formula 10 ([Hyp]GQD[Sar]LAGPK; ends and bridges not checked)”, for which the “Amount of tear secretion as compared with the ELGE control group” value in data set [1] is reported as “did not show any significant changes”. Moreover, the “Tear Volumes, Day 7” value in data set [1] (ELGE rats, 0.3% solution, 5 μl/eye twice daily, day 7 of administration, study of YDE-001 to YDE-028 (Table 14)) is on record as 3.21 ± 0.72 mm^3. Further, the “Tear Volumes, Day 14” value in data set [1] (ELGE rats, 0.3% solution, 5 μl/eye twice daily, day 14 of administration, study of YDE-001 to YDE-028 (Table 14)) turned out to be 4.72 ± 2.19 mm^3. In data set [2], the “Permeability of fluorescent dye (%)” value was 47.10 ± 11.45%. In addition, the “Amount of related substances (%; after 12 weeks)” value in data set [3] worked out at 5.17%.

These data come from US12037415B2, “Peptide and pharmaceutical composition for treating an eye disease comprising the same as an active pharmaceutical ingredient” (YuYu Pharma, Inc., priority 2017, dated 2024).
